Assay: UV absorption (absorbance coefficient)
Assay type: physicochemical
Details: 314 nm
Excerpt: Uvinul® T150 is notable for good UV absorption properties and an extremely high absorbance coefficient of >1500 and 314 nm.

absorbance coefficient: > 1500
Structure (SMILES): CCCCC(CC)COC(=O)c1ccc(Nc2nc(Nc3ccc(C(=O)OCC(CC)CCCC)cc3)nc(Nc3ccc(C(=O)OCC(CC)CCCC)cc3)n2)cc1 (stereo not shown) [Uvinul® T150, 2,4,6-trianilino-p-(carbo-2′-ethylhexyl-1′-oxy)-1,3,5-triazine]
